A word on the EC50: it is the concentration needed to bring the measured effect to its halfway point. Read a high EC50 as weaker potency.

STING, sequence (Q86WV6 whole entry R71H/G230A/H232R/R293Q): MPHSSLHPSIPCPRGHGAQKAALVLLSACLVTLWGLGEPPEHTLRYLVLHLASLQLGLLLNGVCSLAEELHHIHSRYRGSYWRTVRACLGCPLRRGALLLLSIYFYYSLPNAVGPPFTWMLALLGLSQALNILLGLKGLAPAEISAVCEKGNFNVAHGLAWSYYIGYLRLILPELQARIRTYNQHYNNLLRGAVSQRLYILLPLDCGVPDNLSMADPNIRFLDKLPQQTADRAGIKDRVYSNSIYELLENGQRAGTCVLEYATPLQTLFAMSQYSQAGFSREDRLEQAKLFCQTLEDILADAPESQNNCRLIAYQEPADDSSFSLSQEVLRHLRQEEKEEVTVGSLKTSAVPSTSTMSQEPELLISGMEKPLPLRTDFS

The target in one experiment is STING (Homo sapiens, UniProt Q86WV6, G230A/H232R/R293Q/R71H). The experiment in a line: STING reporter assay: THP1-Dual KO-IFNAR2 cells stimulated with 2′3′cGAMP, luciferase reporter activity. The class given is cell-based. The following applies: 15 μM 2′3′cGAMP, 24h, class symbols. An outline of the steps:
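THP1-Dual KO-IFNAR2 cells (2×10E6 cells/mL) treated with compounds at 0.0017-100 μM, then stimulated with 2′3′cGAMP (15 μM final) delivered by Lipofectamine 2000; 24 h at 37° C. Supernatant luciferase read by QUANTI-Luc Plus luminescence; EC50 from dose-response.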
In general terms: In a reporter assay the amount or activity of a reporter protein is the signal.
`FC(F)(F)Cc1ccc(Nc2ccc3cc[nH]c3c2)nc1` [Compound 408, N-(5-(2,2,2-trifluoroethyl)pyridin-2-yl)-1H-indol-6-amine] showed an EC50 of 5 to 100 µM.
Turning to `CCOCc1ccc(Nc2ccc3cc[nH]c3c2)nc1` [Compound 412, N-(5-(ethoxymethyl)pyridin-2-yl)-1H-indol-6-amine], the EC50 lay in the range of 5 to 100 µM.
Same read-out and setting: to `CC(C)(C)OC(=O)N1Cc2cnc(Nc3ccc4cc[nH]c4c3)nc2C1` [Compound 418, tert-butyl 2-((1H-indol-6-yl)amino)-5H-pyrrolo[3,4-d]pyrimidine-6(7H)-carboxylate] belongs 5 to 100 µM; to `CC(C)(C)c1cccc(Nc2ccc3cc[nH]c3c2)n1` [Compound 420, N-(6-(tert-butyl)pyridin-2-yl)-1H-indol-6-amine], 1 to 5 µM.
With `Cc1ccc(Nc2ccc3cc[nH]c3c2)nc1C(F)(F)F` [Compound 421, N-(5-methyl-6-(trifluoromethyl)pyridin-2-yl)-1H-indol-6-amine], the EC50 lay in the range of 1 to 5 µM.
Same read-out and setting: to `O=S(=O)(c1ccc(Nc2ccc3cc[nH]c3c2)nc1)N1CCCCC1` [Compound 422, N-(5-(piperidin-1-ylsulfonyl)pyridin-2-yl)-1H-indol-6-amine] belongs 5 to 100 µM; to `c1ccc(-c2ccc(Nc3ccc4cc[nH]c4c3)nc2)cc1` [Compound 424, N-(5-phenylpyridin-2-yl)-1H-indol-6-amine], 1 to 5 µM.
Still for that read-out and setting: for `CC(C)(C)c1ccc(Nc2ccc3cc[nH]c3c2)nc1` [Compound 426, N-(5-(tert-butyl)pyridin-2-yl)-1H-indol-6-amine] the value was 5 to 100 µM; for `CC(C)(C)OC(=O)N1CCc2cnc(Nc3ccc4cc[nH]c4c3)nc2C1` [Compound 428, tert-butyl 2-((1H-indol-6-yl)amino)-5,6-dihydropyrido[3,4-d]pyrimidine-7(8H)-carboxylate], 5 to 100 µM.
On the same count and under the same terms, to `CC(C)(C)OC(=O)N1CCC(c2ccnc(Nc3ccc4cc[nH]c4c3)n2)CC1` [Compound 429, tert-butyl4-(2-((1H-indol-6-yl)amino)pyrimidin-4-yl)piperidine-1-carboxylate] belongs 5 to 100 µM; to `c1cc2c(c(Nc3ccc4cc[nH]c4c3)n1)CCCC2` [Compound 431, N-(1H-indol-6-yl)-5,6,7,8-tetrahydroisoquinolin-1-amine], 5 to 100 µM.
`Cc1cc(NC(=O)Nc2cc(Cl)c3cc[nH]c3c2)cnc1N1CCC(F)(F)CC1` [Compound 500] displayed an EC50 of 0.2 to 1 µM.
The same measure, in the same setting: for `O=C(Nc1cc(F)cc(C(F)(F)F)c1)Nc1cc(CCO)c2cc[nH]c2c1` [Compound 501] the value was 1 to 5 µM.
With `COc1cc(NC(=O)NCc2cc(Cl)cc(C(F)(F)F)c2)cc2[nH]ccc12` [Compound 503], the EC50 was 0.2 to 1 µM.
Same read-out and setting: for `COc1cc(NC(=O)Nc2ccc(C(F)(F)F)cc2)cc2[nH]ccc12` [Compound 504] the value was 0.2 to 1 µM.
In turn, `COCCc1cc(NC(=O)Nc2ccc(C(F)(F)F)cc2)cc2[nH]ccc12` [Compound 505] showed an EC50 of 1 to 5 µM.
Still for that read-out and setting: for `CC(NC(=O)Nc1cnc2cc[nH]c2c1)c1cc(Cl)cc(C(F)(F)F)c1` (stereo not shown) [Compound 506] the value was 5 to 100 µM; for `O=C(NCc1cc(Cl)cc(C(F)(F)F)c1)Nc1cnc2cc[nH]c2c1` [Compound 507], 1 to 5 µM.
On the same count and under the same terms, for `CNS(=O)(=O)c1c[nH]c2cc(NC(=O)Nc3ccc(C(F)(F)F)cc3)ccc12` [Compound 508] the value was 5 to 100 µM; for `O=C(Nc1cccc(C(F)(F)F)c1)Nc1cc(CCO)c2cc[nH]c2c1` [Compound 509, 1-(4-(2-hydroxyethyl)-1H-indol-6-yl)-3-(3-(trifluoromethyl)phenyl)urea], 1 to 5 µM.
On the same count and under the same terms, for `[N-]=[N+]=Nc1ccc(NC(=O)Nc2ccc3cc[nH]c3c2)cc1` [Compound 510, 1-(4-azidophenyl)-3-(1H-indol-6-yl)urea] the value was 1 to 5 µM; for `CNC(=O)OCCc1cc(NC(=O)Nc2ccc(C(F)(F)F)cc2)cc2[nH]ccc12` [Compound 512], 1 to 5 µM.
The compound `CN(C)CCc1cc(NC(=O)Nc2ccc(C(F)(F)F)cc2)cc2[nH]ccc12` [Compound 513] came in with an EC50 of 5 to 100 µM.
The same measure, in the same setting: to `O=C(Nc1cnc(N2CC(F)(F)C2)c(Cl)c1)Nc1ccc2c(F)c[nH]c2c1` [Compound 514] belongs 0.2 to 1 µM; to `O=C(Nc1cnc(N2CC(F)(F)C2)c(F)c1)Nc1cc(Cl)c2cc[nH]c2c1` [Compound 516], 0.2 to 1 µM.
Still for that read-out and setting: for `O=C(Nc1ccc(C(F)(F)F)cc1)Nc1cc(Cl)c2c(F)c[nH]c2c1` [Compound 518] the value was 0.04 to 0.2 µM.
`O=C(NCCOc1cccnc1)Nc1ccc2cc[nH]c2c1` [Compound 519] showed an EC50 of 5 to 100 µM.
On the same count and under the same terms, to `C[C@@H](NC(=O)Nc1cc(Cl)c2cc[nH]c2c1)c1cc(Cl)cc(C(F)(F)F)c1` [Compound 521, (R)-1-(4-chloro-1H-indol-6-yl)-3-(1-(3-chloro-5-(trifluoromethyl)phenyl)ethyl)urea] belongs 1 to 5 µM.
Still for that read-out and setting: for `O=C(Nc1cccc(C(F)(F)F)c1)Nc1ccc2c(F)c[nH]c2c1` [Compound 523] the value was 1 to 5 µM; for `O=C(NCCOc1ccccc1C(F)(F)F)Nc1ccc2cc[nH]c2c1` [Compound 524], 1 to 5 µM; for `O=C(NCCOc1cccc(C(F)(F)F)c1)Nc1ccc2cc[nH]c2c1` [Compound 525], 0.2 to 1 µM.
Same read-out and setting: to `Cc1ncccc1-n1cc(C#N)c2ccc(NC(=O)Nc3ccc(C(F)(F)F)cc3)cc21` [Compound 527] belongs 5 to 100 µM; to `N#Cc1c[nH]c2cc(NC(=O)Nc3ccc(C(F)(F)F)cc3)cc(F)c12` [Compound 528], 1 to 5 µM.
The compound `CC(=O)n1cc(C#N)c2ccc(NC(=O)Nc3ccc(C(F)(F)F)cc3)cc21` [Compound 529] yielded an EC50 of 1 to 5 µM.
Take `O=C(Nc1cnc(N2CC(F)(F)C2)c(F)c1)Nc1ccc2c(F)c[nH]c2c1` [Compound 531]: the 50% effective concentration (EC50) was in the range of 0.2 to 1 µM.

The same experiment, now with this note: 15 μM 2′3′cGAMP, 24h, numeric bounds.
`FC(F)(F)Oc1cccc(Nc2ccc3cc[nH]c3c2)n1` [Compound 409, N-(6-(trifluoromethoxy)pyridin-2-yl)-1H-indol-6-amine] yielded a concentration giving a half-maximal response (EC50) above 30 µM.
Same read-out and setting: for `FC(F)(F)COc1ccnc(Nc2ccc3cc[nH]c3c2)n1` [Compound 410, N-(4-(2,2,2-trifluoroethoxy)pyrimidin-2-yl)-1H-indol-6-amine] the value was above 30 µM; for `c1cc2ccc(Nc3ccc(C4CC4)cn3)cc2[nH]1` [Compound 411, N-(5-cyclopropylpyridin-2-yl)-1H-indol-6-amine], above 30 µM; for `FC(F)Oc1ccc(Nc2ccc3cc[nH]c3c2)nc1` [Compound 413, N-(5-(difluoromethoxy)pyridin-2-yl)-1H-indol-6-amine], above 30 µM.
The same measure, in the same setting: for `CN1CCC(COc2cnc(Nc3ccc4cc[nH]c4c3)nc2)CC1` [Compound 414, N-(5-((1-methylpiperidin-4-yl)methoxy)pyrimidin-2-yl)-1H-indol-6-amine] the value was above 30 µM; for `c1cc2ccnc(Nc3ccc4cc[nH]c4c3)c2cn1` [Compound 415, N-(1H-indol-6-yl)-2,7-naphthyridin-1-amine], above 30 µM.
Same read-out and setting: to `CC(F)(F)c1ccnc(Nc2ccc3cc[nH]c3c2)c1` [Compound 416, N-(4-(1,1-difluoroethyl)pyridin-2-yl)-1H-indol-6-amine] belongs above 30 µM; to `CC(C)(C)OC(=O)N1CCc2nc(Nc3ccc4cc[nH]c4c3)ncc2C1` [Compound 419, tert-butyl 2-((1H-indol-6-yl)amino)-7,8-dihydropyrido[4,3-d]pyrimidine-6(5H)-carboxylate], above 30 µM.
As to `O=S(=O)(c1ccc(Nc2ccc3cc[nH]c3c2)nc1)N1CCCC1` [Compound 423, N-(5-(pyrrolidin-1-ylsulfonyl)pyridin-2-yl)-1H-indol-6-amine], the EC50 was above 30 µM.
Same read-out and setting: to `Clc1ccc2ccc(Nc3ccc4cc[nH]c4c3)nc2c1Cl` [Compound 425, 7,8-dichloro-N-(1H-indol-6-yl)quinolin-2-amine] belongs above 30 µM; to `c1ccc(-c2cccc(Nc3ccc4cc[nH]c4c3)n2)cc1` [Compound 427, N-(6-phenylpyridin-2-yl)-1H-indol-6-amine], above 20.4 µM.
On the same count and under the same terms, to `CC(N)c1ccnc(Nc2ccc3cc[nH]c3c2)c1` (stereo not shown) [Compound 430, N-(4-(1-aminoethyl)pyridin-2-yl)-1H-indol-6-amine] belongs above 30 µM; to `FC(F)(F)c1ccc2cnc(Nc3ccc4cc[nH]c4c3)nc2c1` [Compound 432, N-(1H-indol-6-yl)-7-(trifluoromethyl)quinazol in-2-amine], above 30 µM; to `c1cc(Nc2ccc3cc[nH]c3c2)nc(C2CC2)c1` [Compound 433, N-(6-cyclopropylpyridin-2-yl)-1H-indol-6-amine], above 30 µM.
Same read-out and setting: to `c1cnc2ccnc(Nc3ccc4cc[nH]c4c3)c2c1` [Compound 478, N-(1H-indol-6-yl)-1,6-naphthyridin-5-amine] belongs above 30 µM; to `COC1CN(c2ncc(NC(=O)Nc3cc(Cl)c4cc[nH]c4c3)cc2C)C1` [Compound 498], above 30 µM.
`Cc1cc(NC(=O)Nc2ccc3c(F)c[nH]c3c2)cnc1N1CCC(F)(F)CC1` [Compound 499] came in with an EC50 above 1.11 µM.
Same read-out and setting: for `N#Cc1cc(NC(=O)Nc2cnc(N3CC(F)(F)C3)c(F)c2)cc2[nH]ccc12` [Compound 511] the value was above 30 µM.
Same read-out and setting: to `O=C(Nc1ccc2c(F)c[nH]c2c1)Nc1ccc(N2CC(F)(F)C2)cn1` [Compound 515] belongs above 30 µM; to `O=C(Nc1ccc(N2CC(F)(F)C2)nc1)Nc1ccc2c(F)c[nH]c2c1` [Compound 517], above 30 µM.
Same read-out and setting: to `CC(=O)c1c[nH]c2cc(NC(=O)Nc3ccc(C(F)(F)F)cc3)ccc12` [Compound 522] belongs above 30 µM; to `Cc1c(NC(=O)Nc2ccc(C(F)(F)F)cc2)ccc2c(C#N)c[nH]c12` [Compound 526], above 7.38 µM.
Regarding `N#Cc1c[nH]c2cc(NC(=O)Nc3cnc(N4CC(F)(F)C4)c(F)c3)ccc12` [Compound 530], the half-maximal effective concentration (EC50) is above 30 µM.

The record behind these values is patent US20230092163A1, “COMPOUNDS AND COMPOSITIONS FOR TREATING CONDITIONS ASSOCIATED WITH STING ACTIVITY” (IFM Due, Inc., priority 2019, published 2023).
